Active and inactive are the calls of the source. No cut-off for these calls is given here.
Assays:
Staphylococcus aureus [1] = experiment: Antibacterial activity against clinical isolate multi-drug resistant Staphylococcus aureus sal assessed as reduction in log10 CFU at 6 times of MIC measured after 8 hrs by time-kill assay; assay type: functional
Klebsiella pneumoniae [2] = experiment: Antibacterial activity against clinical isolate Klebsiella pneumoniae harbouring mcr-8 gene assessed as inhibition of bacterial growth measured after 24 hrs by MH broth based assay; assay type: functional
Staphylococcus aureus [3] = experiment: Antibacterial activity against Staphylococcus aureus ATCC 29213 assessed as inhibition of bacterial growth measured after 24 hrs by MH broth based assay; assay type: functional
Staphylococcus aureus [4] = experiment: Antibacterial activity against methicillin-resistant Staphylococcus aureus ATCC 43300 assessed as reduction in log10 CFU at 6 times of MIC measured after 8 hrs by time-kill assay; assay type: functional
Staphylococcus aureus [5] = experiment: Antibacterial activity against methicillin-resistant Staphylococcus aureus ATCC 43300 assessed as inhibition of bacterial growth measured after 24 hrs by MH broth based assay; assay type: functional
Proteus = experiment: Antibacterial activity against Proteus CMCC (B) 49027 assessed as inhibition of bacterial growth measured after 24 hrs by MH broth based assay; assay type: functional
Staphylococcus aureus [6] = experiment: Antibacterial activity against clinical isolate multi-drug resistant Staphylococcus aureus sal assessed as inhibition of bacterial growth; assay type: functional
Staphylococcus aureus [7] = experiment: Antibacterial activity against clinical isolate Staphylococcus aureus harbouring ArlS, norA and MgrA gene assessed as inhibition of bacterial growth measured after 24 hrs by MH broth based assay; assay type: functional
HEK293 = experiment: Cytotoxicity against HEK293 cells assessed as reduction in cell viability at 7.5 to 1000 ug/ml incubated for 6 hrs by CCK-8 assay; assay type: toxicity, cell-based; conditions: human, hek293, 6 h, dose 7.5-1000 µg/ml
Staphylococcus aureus [8] = experiment: Antibacterial activity against Staphylococcus aureus ATCC 29213 assessed as induction of bacterial fragmentation at 1 times of MIC by SEM analysis; assay type: functional, organism-based
Staphylococcus aureus [9] = experiment: Antibacterial activity against multi-drug resistant Staphylococcus aureus sa1 infected in ip dosed BABL/C mouse assessed as survival rate measured upto 7 days; assay type: functional; conditions: sa1, 168 h, time <= 7 day
Staphylococcus aureus [10] = experiment: Antibacterial activity against 2 times of MIC treated methicillin-resistant Staphylococcus aureus […] assessed as post-antibiotic sub-MIC effect by measuring time required for increase in log10 CFU/ml of bacteria at 0.25 to 0.5 times of MIC incubated for 1 hr by MH broth based assay; assay type: functional
Escherichia coli = experiment: Antibacterial activity against Escherichia coli ATCC 25922 assessed as inhibition of bacterial growth measured after 24 hrs by MH broth based assay; assay type: functional
HepG2 = experiment: Cytotoxicity against human HepG2 cells assessed as reduction in cell viability at 7.5 to 1000 ug/ml incubated for 6 hrs by CCK-8 assay; assay type: toxicity, cell-based; conditions: hepg2, 6 h, dose 7.5-1000 µg/ml
[11] = system: Staphylococcus epidermidis; experiment: Antibacterial activity against methicillin-resistant Staphylococcus epidermidis ATCC 51625 assessed as inhibition of bacterial growth measured after 24 hrs by MH broth based assay; assay type: functional
Staphylococcus aureus [12] = experiment: Antibacterial activity against clinical isolate Staphylococcus aureus harbouring blaZ gene assessed as inhibition of bacterial growth measured after 24 hrs by MH broth based assay; assay type: functional
Staphylococcus aureus [13] = experiment: Antibacterial activity against methicillin-resistant Staphylococcus aureus […] assessed as post antibacterial effect by measuring time required for increase in log10 CFU/ml of bacteria at 4 times of MIC incubated for 1 hr by MH broth based assay; assay type: functional
Staphylococcus aureus [14] = experiment: Antibacterial activity against 2 times of MIC treated methicillin-resistant Staphylococcus aureus […] assessed as post-antibiotic sub-MIC effect by measuring time required for increase in log10 CFU/ml of bacteria at 0.5 times of MIC incubated for 1 hr by MH broth based assay; assay type: functional
Streptococcus pneumoniae = experiment: Antibacterial activity against Streptococcus pneumoniae ATCC 49619 assessed as inhibition of bacterial growth measured after 24 hrs by MH broth based assay; assay type: functional
Cell membrane [15] = experiment: Disruption of membrane integrity in Staphylococcus aureus ATCC 29213 at 1 to 6 times of MIC by DAPI/propidium iodide staining based fluorescence microscopic analysis; assay type: subcellular
Bacillus subtilis = experiment: Antibacterial activity against Bacillus subtilis ATCC 6633 assessed as inhibition of bacterial growth measured after 24 hrs by MH broth based assay; assay type: functional
Cell membrane [16] = experiment: Disruption of membrane integrity in Staphylococcus aureus ATCC 29213 assessed as induction of cell membrane perforation at 1 to 4 ug/ml incubated for 60 mins by ONPG reagent based analysis; assay type: subcellular; conditions: dose 1-4 µg/ml
Staphylococcus aureus [17] = experiment: Antibacterial activity against clinical isolate Staphylococcus aureus harbouring cfr and erm C gene assessed as inhibition of bacterial growth measured after 24 hrs by MH broth based assay; assay type: functional
Enterococcus lactis = experiment: Antibacterial activity against clinical isolate Enterococcus lactis assessed as inhibition of bacterial growth measured after 24 hrs by MH broth based assay; assay type: functional
Staphylococcus aureus [18] = experiment: Antibacterial activity against clinical isolate Staphylococcus aureus harbouring IsaE gene assessed as inhibition of bacterial growth measured after 24 hrs by MH broth based assay; assay type: functional
Staphylococcus aureus [19] = experiment: Antibacterial activity against multi-drug resistant Staphylococcus aureus sa1 infected in BABL/C mouse assessed as survival rate at 10 mg/kg, ip measured upto 7 days; assay type: functional; conditions: sa1, 168 h, time <= 7 day
Streptococcus parasuis [20] = experiment: Antibacterial activity against clinical isolate Streptococcus parasuis harbouring InuD gene assessed as inhibition of bacterial growth measured after 24 hrs by MH broth based assay; assay type: functional
Enterococcus = experiment: Antibacterial activity against vancomycin-resistant Enterococcus ATCC 700221 assessed as inhibition of bacterial growth measured after 24 hrs by MH broth based assay; assay type: functional
[21] = system: Streptococcus hyovaginalis; experiment: Antibacterial activity against clinical isolate Streptococcus hyovaginalis harbouring ErmB and tetO gene assessed as inhibition of bacterial growth measured after 24 hrs by MH broth based assay; assay type: functional
Klebsiella pneumoniae [22] = experiment: Antibacterial activity against Klebsiella pneumonia CMCC (B) 46117 assessed as inhibition of bacterial growth measured after 24 hrs by MH broth based assay; assay type: functional
Staphylococcus aureus [23] = experiment: Antibacterial activity against methicillin-resistant Staphylococcus aureus assessed as resistance development by measuring fold increase in MIC measured after 24 days; assay type: functional; conditions: time 24 day
Aerococcus viridans = experiment: Antibacterial activity against clinical isolate Aerococcus viridans harbouring optrA and ErmA gene assessed as inhibition of bacterial growth measured after 24 hrs by MH broth based assay; assay type: functional
Streptococcus parasuis [24] = experiment: Antibacterial activity against clinical isolate Streptococcus parasuis harbouring optrA gene assessed as inhibition of bacterial growth measured after 24 hrs by MH broth based assay; assay type: functional
[25] = Toxicity in BABL/C mouse assessed as survival rate at 631 mg/kg, po measured upto 14 days; assay type: organism-based; conditions: in vivo, time < 14 day
Staphylococcus aureus [26] = experiment: Antibacterial activity against methicillin-resistant Staphylococcus aureus […] assessed as post antibacterial effect by measuring time required for increase in log10 CFU/ml of bacteria at 2 times of MIC incubated for 1 hr by MH broth based assay; assay type: functional
[27] = system: Streptococcus hyovaginalis; experiment: Antibacterial activity against clinical isolate Streptococcus hyovaginalis harbouring IsaE and optrA gene assessed as inhibition of bacterial growth measured after 24 hrs by MH broth based assay; assay type: functional
Staphylococcus aureus [28] = experiment: Potency index, ratio of tiamulin MIC to compound […] for antibacterial activity against clinical isolate multi-drug resistant Staphylococcus aureus sal; assay type: functional

**Q.** For `C=C[C@]1(C)C[C@@H](OC(=O)CSc2cc[n+](CCCCCCC)cc2)[C@]2(C)[C@H](C)CC[C@]3(CCC(=O)[C@H]32)[C@@H](C)[C@@H]1O.[I-]`, which Activity (Staphylococcus aureus [1]) is on record?
**A.** 2 log10CFU/ml

**Q.** And the MIC (Klebsiella pneumoniae [2])?
**A.** 2 µg/mL

**Q.** What about the MIC (Staphylococcus aureus [3]) of the same molecule?
**A.** 0.063 µg/mL

**Q.** What about the Activity (Staphylococcus aureus [4]) of the same molecule?
**A.** 2 log10CFU/ml

**Q.** And the MIC (Staphylococcus aureus [5])?
**A.** 0.063 µg/mL

**Q.** What about the MIC (Proteus) of the same molecule?
**A.** 32 µg/mL

**Q.** What about the MIC (Staphylococcus aureus [6]) of the same molecule?
**A.** 8 µg/mL

**Q.** What about the MIC (Staphylococcus aureus [7]) of the same molecule?
**A.** 0.063 µg/mL

**Q.** What about the Activity (HEK293) of the same molecule?
**A.** Non-Toxic

**Q.** What about the Activity (Staphylococcus aureus [8]) of the same molecule?
**A.** Active

**Q.** What about the ED50 (Staphylococcus aureus [9]) of the same molecule?
**A.** 5.68 mg/kg

**Q.** And the Time (Staphylococcus aureus [10])?
**A.** 2.62 h

**Q.** And the MIC (Escherichia coli)?
**A.** 32 µg/mL

**Q.** What about the Activity (HepG2) of the same molecule?
**A.** Non-Toxic

**Q.** What about the MIC [11] of the same molecule?
**A.** 0.063 µg/mL

**Q.** And the MIC (Staphylococcus aureus [12])?
**A.** 0.063 µg/mL

**Q.** What about the Time (Staphylococcus aureus [13]) of the same molecule?
**A.** 2.56 h

**Q.** What about the Time (Staphylococcus aureus [14]) of the same molecule?
**A.** ~2.7 h

**Q.** And the MIC (Streptococcus pneumoniae)?
**A.** < 0.031 µg/mL

**Q.** What about the Activity (Cell membrane [15]) of the same molecule?
**A.** Active

**Q.** And the MIC (Bacillus subtilis)?
**A.** 4 µg/mL

**Q.** And the Activity (Cell membrane [16])?
**A.** Active

**Q.** And the MIC (Staphylococcus aureus [17])?
**A.** 8 µg/mL

**Q.** What about the MIC (Enterococcus lactis) of the same molecule?
**A.** 32 µg/mL

**Q.** And the MIC (Staphylococcus aureus [18])?
**A.** 8 µg/mL

**Q.** What about the survival at 10 mg/kg (Staphylococcus aureus [19]) of the same molecule?
**A.** 66%

**Q.** What about the MIC (Streptococcus parasuis [20]) of the same molecule?
**A.** 16 µg/mL

**Q.** What about the MIC (Enterococcus) of the same molecule?
**A.** 4 µg/mL

**Q.** What about the MIC [21] of the same molecule?
**A.** 32 µg/mL

**Q.** And the MIC (Klebsiella pneumoniae [22])?
**A.** 2 µg/mL

**Q.** And the “fold change (FC)” value (Staphylococcus aureus [23])?
**A.** 8

**Q.** What about the MIC (Aerococcus viridans) of the same molecule?
**A.** 2 µg/mL

**Q.** What about the MIC (Streptococcus parasuis [24]) of the same molecule?
**A.** 16 µg/mL

**Q.** And the survival at 336 h [25]?
**A.** 80%

**Q.** What about the Time (Staphylococcus aureus [26]) of the same molecule?
**A.** 2.31 h

**Q.** What about the MIC [27] of the same molecule?
**A.** 32 µg/mL

**Q.** And the Ratio (Staphylococcus aureus [28])?
**A.** 96
